Laboratory results reported in patent publication US20230303513A1, “OXOPYRROLIDINE UREA FPR2 AGONISTS” (BRISTOL-MYERS SQUIBB COMPANY, priority 2020, published 2023).
Where two headings read alike, the source gives them in different places.

Legend:
human FPR2 = human FPR2 (Homo sapiens (Human), UniProt P25090); test: FPR2 cyclic adenosine monophosphate (cAMP) assay; format: cell-based; details: read-out: hFPR2 cAMP2 EC50
From the text: (§1) N-formyl peptide receptors (FPRs) are a family of chemo attractant receptors that facilitate leukocyte response during inflammation. FPRs belong to the seven-transmembrane G protein-coupled receptor superfamily and are linked to inhibitory G-proteins (Gi). Three family members (FPR1, FPR2 and FPR3) have been identified in humans and are predominantly found in myeloid cells with varied distribution and have also been reported in multiple organs and tissues. After agonist binding, the FPRs activate a multitude of physiological pathways, such as intra cellular signaling transduction, Ca^21 mobilization and transcription. The family interacts with a diverse set of ligands that includes proteins, polypeptides and fatty acid metabolites which activate both pro-inflammatory and pro-resolution downstream responses. FPR2 and FPR1 Cyclic Adenosine Monophosphate (cAMP) Assays were used to measure the activity of the compounds in this patent.
(§2) FPR2 and FPR1 Cyclic Adenosine Monophosphate (cAMP) Assays. A mixture of forskolin (5 μM final for FPR2 or 10 μM final for FPR1) and IBMX (200 μM final) were added to 384-well Proxiplates (Perkin-Elmer) pre-dotted with test compounds in DMSO (1% final) at final concentrations in the range of 0.020 nM to 100 μM. Chinese Hamster Ovary cells (CHO) overexpressing human FPR1 or human FPR2 receptors were cultured in F-12 (Ham's) medium supplemented with 10% qualified FBS, 250 μg/ml zeocin and 300 μg/ml hygromycin (Life Technologies). Reactions were initiated by adding 2,000 human FPR2 cells per well or 4,000 human FPR1 cells per well in Dulbecco's PBS (with calcium and magnesium) (Life Technologies) supplemented with 0.1% BSA (Perkin-Elmer). The reaction mixtures were incubated for 30 min at room temperature. The level of intracellular cAMP was determined using the HTRF HiRange cAMP assay reagent kit (Cisbio) according to manufacturer's instruction. Solutions of cryptate conjugated anti-cAMP and d2 flurorophore-labelled cAMP were made in a supplied lysis buffer separately. Upon completion of the reaction, the cells were lysed with equal volume of the d2-cAMP solution and anti-cAMP solution. After a 1-h room temperature incubation, time-resolved fluorescence intensity was measured using the Envision (Perkin-Elmer) at 400 nm excitation and dual emission at 590 nm and 665 nm. A calibration curve was constructed with an external cAMP standard at concentrations ranging from 1 μM to 0.1 μM by plotting the fluorescent intensity ratio from 665 nm emission to the intensity from the 590 nm emission against cAMP concentrations. The potency and activity of a compound to inhibit cAMP production was then determined by fitting to a 4-parametric logistic equation from a plot of cAMP level versus compound concentrations.

human FPR1 = human FPR1 (Homo sapiens (Human), UniProt P21462); test: FPR1 cyclic adenosine monophosphate (cAMP) assay; format: cell-based; details: read-out: hFPR1 cAMP EC50
human FPR1, sequence (P21462 whole entry): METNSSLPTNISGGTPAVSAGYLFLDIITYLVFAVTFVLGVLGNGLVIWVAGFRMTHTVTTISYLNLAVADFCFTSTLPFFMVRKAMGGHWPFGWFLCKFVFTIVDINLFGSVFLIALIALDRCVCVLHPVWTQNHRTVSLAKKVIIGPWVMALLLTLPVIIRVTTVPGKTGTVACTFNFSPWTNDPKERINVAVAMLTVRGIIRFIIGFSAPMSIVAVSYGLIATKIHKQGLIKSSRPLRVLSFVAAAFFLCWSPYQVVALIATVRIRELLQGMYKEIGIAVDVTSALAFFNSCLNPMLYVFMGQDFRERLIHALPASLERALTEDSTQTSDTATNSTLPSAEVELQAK
From the text: as §1, §2

[1] = CHO cells overexpressing human FPR2, forskolin 5 μM, IBMX 200 μM, inhibition of cAMP production, HTRF
[2] = CHO cells overexpressing human FPR1, forskolin 10 μM, IBMX 200 μM, inhibition of cAMP production, HTRF

human FPR2, sequence (P25090 whole entry): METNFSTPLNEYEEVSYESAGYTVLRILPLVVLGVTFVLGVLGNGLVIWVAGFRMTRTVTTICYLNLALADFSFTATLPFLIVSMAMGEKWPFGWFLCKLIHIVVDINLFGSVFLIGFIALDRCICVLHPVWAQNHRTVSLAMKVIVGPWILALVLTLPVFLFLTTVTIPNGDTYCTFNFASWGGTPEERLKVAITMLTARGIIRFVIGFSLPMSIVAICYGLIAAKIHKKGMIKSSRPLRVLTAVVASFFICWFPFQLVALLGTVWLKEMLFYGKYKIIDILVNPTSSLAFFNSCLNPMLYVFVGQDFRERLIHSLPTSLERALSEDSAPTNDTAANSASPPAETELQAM

EC50 (human FPR2; [1]) | EC50 (human FPR1; [2]) | EC50 (human FPR2) | EC50 (human FPR1) | Structure (SMILES)
6 nM | 7.1 nM |  |  | COc1cc(F)c([C@@H]2CN(c3ncccc3C(F)(F)F)C(=O)[C@H]2NC(=O)NC2CCc3cc(Cl)ccc3C2)c(F)c1 (stereo partly drawn) [Example 43]
53 nM | 54 nM |  |  | COc1cc(F)c([C@@H]2CN(c3ncccc3C(F)(F)F)C(=O)[C@H]2NC(=O)NC2CCc3cc(OC)ccc3C2)c(F)c1 (stereo partly drawn) [Example 64]
1.9 nM | 30.1 nM |  |  | COc1cc(F)c([C@@H]2CN(c3cccn(CCO)c3=O)C(=O)[C@H]2NC(=O)NC2CCc3cc(Cl)ccc3C2)c(F)c1 (stereo partly drawn) [Example 19]
4.6 nM | 3400 nM |  |  | COc1cc(F)c([C@@H]2CN(c3nccc(N4C[C@@H]5C[C@H]4CN5C)c3C(F)(F)F)C(=O)[C@H]2NC(=O)N[C@H]2CC[C@H](C(F)F)CC2)c(F)c1 (single isomer, unassigned) [Example 96]
5.9 nM | 1.5 nM |  |  | COCC(CO)n1cccc(N2C[C@@H](c3c(F)cc(OC)cc3F)[C@H](NC(=O)NC3CCc4cc(OC)ccc4C3)C2=O)c1=O (stereo partly drawn) [Example 81]
4.5 nM | 1.3 nM |  |  | COCCn1ccc(OC)c(N2C[C@@H](c3c(F)cc(OC)cc3F)[C@H](NC(=O)NC3CCc4cc(Cl)ccc4C3)C2=O)c1=O (stereo partly drawn) [Example 38]
97 nM | > 10000 nM |  |  | COc1cc(F)c([C@@H]2CN(c3ncccc3C(F)(F)F)C(=O)[C@H]2NC(=O)NC2CCC3(CC2)CC3)c(F)c1 [Example 67]
29 nM | 220 nM |  |  | COc1cc(F)c([C@@H]2CN(c3ncccc3C(F)(F)F)C(=O)[C@H]2NC(=O)NC2CCc3cc(OC)ccc3C2(C)C)c(F)c1 (stereo partly drawn) [Example 58]
25 nM | > 1000 nM |  |  | CNC(=O)CNc1ccnc(N2C[C@@H](c3c(F)cc(OC)cc3F)[C@H](NC(=O)N[C@H]3CC[C@H](C(F)F)CC3)C2=O)c1C(F)(F)F [Example 72]
 |  | 3.9 nM | 1200 nM | COc1cc(F)c([C@@H]2CN(c3ncccc3C(F)(F)F)C(=O)[C@H]2NC(=O)N[C@H]2CC[C@H](C(F)F)CC2)c(F)c1 [Example 32]
1.7 nM | 4.7 nM |  |  | COCCn1cccc(N2C[C@@H](c3ccc(OC)cc3)[C@H](NC(=O)NC3CCc4cc(Cl)ccc4C3)C2=O)c1=O (stereo partly drawn) [Example 16]
33 nM | 17 nM |  |  | CCn1cccc(N2C[C@@H](c3c(F)cc(OC)cc3F)[C@H](NC(=O)NC3CCc4cc(OC)ccc4C3(C)C)C2=O)c1=O (stereo partly drawn) [Example 61]
5.6 nM | 0.5 nM |  |  | CCn1cccc(N2C[C@@H](c3c(F)cc(OC)cc3F)[C@H](NC(=O)NC3CCc4cc(OC)ccc4C3)C2=O)c1=O (stereo partly drawn) [Example 41]
14 nM | 1700 nM |  |  | COc1cc(F)c([C@@H]2CN(c3nccc(NCC4CCCO4)c3C(F)(F)F)C(=O)[C@H]2NC(=O)N[C@H]2CC[C@H](C(F)F)CC2)c(F)c1 (stereo partly drawn) [Example 93]
12 nM | 1.2 nM |  |  | COCCn1ccc(OC)c(N2C[C@@H](c3c(F)cc(OC)cc3F)[C@H](NC(=O)NC3CCc4cc(OC)ccc4C3)C2=O)c1=O (stereo partly drawn) [Example 50]
4.4 nM | 7.6 nM |  |  | COCCn1nccc(N2C[C@@H](c3c(F)cc(OC)cc3F)[C@H](NC(=O)NC3CCc4cc(OC)ccc4C3)C2=O)c1=O (stereo partly drawn) [Example 85]
9 nM | > 10000 nM |  |  | COc1cc(F)c([C@@H]2CN(c3nccc(NC4CCOC4)c3C(F)(F)F)C(=O)[C@H]2NC(=O)N[C@H]2CC[C@H](C(F)F)CC2)c(F)c1 (single isomer, unassigned) [Example 100]
0.7 nM | 6 nM |  |  | CCn1cccc(N2C[C@@H](c3ccc(OC)cc3)[C@H](NC(=O)NC3CCc4cc(Cl)ccc4C3)C2=O)c1=O (stereo partly drawn) [Example 9]
4 nM | 4.2 nM |  |  | COc1cc(F)c([C@@H]2CN(c3ncccc3C(F)(F)F)C(=O)[C@H]2NC(=O)NC2COc3cc(OC)ccc3C2)c(F)c1 (stereo partly drawn) [Example 33]

EC50 (human FPR2; [1]) | EC50 (human FPR1; [2]) | EC50 (human FPR2) | EC50 (human FPR1) | Structure (SMILES)
1.7 nM | 0.6 nM |  |  | COCCn1cccc(N2C[C@@H](c3c(F)cc(OC)cc3F)[C@H](NC(=O)NC3CCc4cc(Cl)ccc4C3)C2=O)c1=O (stereo partly drawn) [Example 17]
670 nM | 3500 nM |  |  | COc1cc(F)c([C@@H]2CN(c3nccc(N4CCOCC4)c3C(F)(F)F)C(=O)[C@H]2NC(=O)N[C@H]2CC[C@H](C(F)F)CC2)c(F)c1 [Example 108]
7.7 nM | 780 nM |  |  | COc1cc(F)c([C@@H]2CN(c3nccc(N4CCC(C)(O)C4)c3C(F)(F)F)C(=O)[C@H]2NC(=O)N[C@H]2CC[C@H](C(F)F)CC2)c(F)c1 (single isomer, unassigned) [Example 91]
17 nM | 1200 nM |  |  | COCCn1cccc(N2C(=O)[C@@H](NC(=O)N[C@H]3CC[C@H](C(F)F)CC3)[C@H](c3c(F)cc(OC)cc3F)[C@@H]2C)c1=O [Example 105]
26 nM | 1.2 nM |  |  | COc1cc(F)c([C@@H]2CN(c3c(OC)ccn(C)c3=O)C(=O)[C@H]2NC(=O)NC2CCc3cc(OC)ccc3C2)c(F)c1 (stereo partly drawn) [Example 57]
0.9 nM | 0.8 nM |  |  | CCn1cccc(N2C[C@@H](c3ccc(OC)cc3)[C@H](NC(=O)NC3CCc4cc(OC)ccc4C3)C2=O)c1=O (stereo partly drawn) [Example 12]
54 nM | 1100 nM |  |  | COc1cc(F)c([C@H]2[C@H](NC(=O)N[C@H]3CC[C@H](C(F)F)CC3)C(=O)N(c3cccn(CCO)c3=O)[C@H]2C)c(F)c1 [Example 71]
5.2 nM | 1800 nM |  |  | COCCNc1ccnc(N2C[C@@H](c3c(F)cc(OC)cc3F)[C@H](NC(=O)N[C@H]3CC[C@H](C(F)F)CC3)C2=O)c1C(F)(F)F [Example 69]
17 nM | 2100 nM |  |  | COc1cc(F)c([C@@H]2CN(c3nccc(N4CCN5CCCC5C4)c3C(F)(F)F)C(=O)[C@H]2NC(=O)N[C@H]2CC[C@H](C(F)F)CC2)c(F)c1 (single isomer, unassigned) [Example 103]
50 nM | 100 nM |  |  | COc1cc(F)c([C@@H]2CN(c3cccn(CC(O)C(F)(F)F)c3=O)C(=O)[C@H]2NC(=O)NC2CCc3cc(OC)ccc3C2)c(F)c1 (single isomer, unassigned) [Example 78]
1.4 nM | 0.3 nM |  |  | CCn1nccc(N2C[C@@H](c3c(F)cc(OC)cc3F)[C@H](NC(=O)NC3CCc4cc(OC)ccc4C3)C2=O)c1=O (single isomer, unassigned) [Example 86]
11 nM | 1 nM |  |  | COc1cc(F)c([C@@H]2CN(c3cccn(CC(O)C(F)(F)F)c3=O)C(=O)[C@H]2NC(=O)NC2CCc3cc(OC)ccc3C2)c(F)c1 (stereo partly drawn) [Example 80]
4.5 nM | 62 nM |  |  | COc1ccc([C@H]2C[C@@H]2NC(=O)N[C@@H]2C(=O)N(c3ncccc3C(F)(F)F)C[C@H]2c2c(F)cc(OC)cc2F)cc1 [Example 35]
4 nM | 3.7 nM |  |  | COc1cc(F)c([C@H]2[C@H](NC(=O)NC3CCc4cc(OC)ccc4C3)C(=O)N(c3cccn(CCO)c3=O)[C@H]2C)c(F)c1 (single isomer, unassigned) [Example 90]
1.8 nM | 0.2 nM |  |  | COc1cc(F)c([C@H]2[C@H](NC(=O)NC3CCc4cc(OC)ccc4C3)C(=O)N(c3ncccc3OC)[C@H]2C)c(F)c1 (stereo partly drawn) [Example 18]
12 nM | 77 nM |  |  | COc1cc(F)c([C@H]2[C@H](NC(=O)N[C@H]3CC[C@H](C(F)F)CC3)C(=O)N(c3ncccc3OC(C)C)[C@H]2C)c(F)c1 [Example 51]
320 nM | > 1000 nM |  |  | COc1cc(F)c([C@@H]2CN(c3nccc(NCC4CCOC4)c3C(F)(F)F)C(=O)[C@H]2NC(=O)N[C@H]2CC[C@H](C(F)F)CC2)c(F)c1 (single isomer, unassigned) [Example 73]
1.6 nM | > 10000 nM |  |  | COc1cc(F)c([C@@H]2CN(c3nccc(N4CC(C)(O)C4)c3C(F)(F)F)C(=O)[C@H]2NC(=O)N[C@H]2CC[C@H](C(F)F)CC2)c(F)c1 [Example 101]
9.9 nM | 2500 nM |  |  | COc1ccc([C@H]2C[C@@H]2NC(=O)N[C@@H]2C(=O)N(c3ncccc3C(F)(F)F)C[C@H]2c2c(F)cc(OC)cc2F)cc1 [Example 49]

Structure (SMILES) | EC50 (human FPR2; [1]) | EC50 (human FPR1; [2]) | EC50 (human FPR2) | EC50 (human FPR1)
COCCn1cccc(N2C(=O)[C@@H](NC(=O)NC3CCc4cc(OC)ccc4C3(C)C)[C@H](c3c(F)cc(OC)cc3F)[C@@H]2C)c1=O (stereo partly drawn) [Example 40] | 5.3 nM | 200 nM |  | 
